Reference: patent US9416353B2, “Covalent tethering of functional groups to proteins and substrates therefor” (Promega Corporation, priority 2004, dated 2016)

Tests used:
[1] = target: DhaA.H272F (Rhodococcus rhodochrous, UniProt P0A3G2, H272F); assay type: binding; settings: dose dependent, HRP conjugated streptavidin
[2] = test system: CHO-K1 cells; assay: Toxicity of Cl-alkanes, CellTiter-Glo Luminescence Cell Viability Assay; assay type: cell-based
Method: To study the toxicity of Cl-alkanes, CHO-K1 cells were plated in 96 well plates to a density of 5,000 cells per well. […] Viability of the cells was measured with CellTiter-Glo™ Luminescence Cell Viability Assay (Promega) according to the manufacturer's protocol. Generally, 100 μl of CellTiter-Glo™ reagent was added directly to the cells and the luminescence was recorded at 10 minutes using a DYNEX MLX microtiter plate luminometer.

[3] = test system: CHO-K1 cells; assay: Permeability of cell membrane to substrates (uptake and wash-out, fluorescence); assay type: cell-based; settings: 100 μM, 60 minutes
Method: CHO-K1 Cells (ATCC-CCL61) were cultured in a 1:1 mixture of Ham's F12 nutrients and Dulbecco's modified minimal essential medium supplemented with 10% fetal bovine serum (FBS), 100 U/ml penicillin, and […] streptomycin, in an atmosphere of 95% air and 5% CO2 at 37° C.

With `O=C(CCCC[C@@H]1SC[C@@H]2NC(=O)N[C@@H]21)NCCOCCOCCCCCCCl` [biotin-C10H21NO2—Cl, N-{2-[2-(6-Chlorohexyloxy)-ethoxy]ethyl}-biotin-amide] the “concentration at which binding could be detected” value [1] was 0.2 µM and the “toxicity on CHO-K1 cells” value ([2]; 24 hours of treatment at 100 μM) was “No toxicity”.

With “N-{2-[2-(6-Chlorohexyloxy)-ethoxy]-ethyl}-tetramethylrhodamine-5-(and -6)-amide” the “toxicity on CHO-K1 cells” value ([2]; 4 hour treatment at 100 μM (highest concentration tested)) was “no toxicity”.

For `O=C(NCCOCCOCCCCCCCl)c1ccc(-c2c3ccc(=O)cc-3oc3cc(O)ccc23)c(C(=O)O)c1` [N-{2-[2-(6-Chlorohexyloxy)-ethoxy]-ethyl}-fluorescein-5-amide], the “crossing of the plasma membrane of CHO-K1 cells” value [3] was “did not cross the plasma membrane”.
